Measurements taken from PubChem BioAssay (NCI).
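In this assay, cells in 96-well plates receive the compound at five concentrations for 48 hours. Endpoints are linearly interpolated between the surrounding concentrations. Here, GI50 denotes the concentration required for 50% inhibition of growth. The concentration for full growth arrest is given as TGI.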

Tests used:
Assay in all cases: NCI tumour cell line growth inhibition, 48 h
DLD-1 colon = system: DLD-1 colon
DMS 114 small cell lung = system: DMS 114 small cell lung
LXFL 529 NSCLC = system: LXFL 529 NSCLC
M19-MEL melanoma = system: M19-MEL melanoma
SNB-78 CNS = system: SNB-78 CNS
XF 498 CNS = system: XF 498 CNS
MDA-N = system: MDA-N
RXF-631 renal = system: RXF-631 renal
P388 leukemia = system: P388 leukemia
P388/ADR leukemia = system: P388/ADR leukemia
SN12K1 renal = system: SN12K1 renal

SMILES	TGI (DLD-1 colon)	TGI (DMS 114 small cell lung)	TGI (LXFL 529 NSCLC)	TGI (M19-MEL melanoma)	TGI (SNB-78 CNS)	TGI (XF 498 CNS)	TGI (MDA-N)	TGI (RXF-631 renal)	also measured
NC(=O)NNC/C(Cl)=C(\Cl)C(=O)O	> 100 µM	> 100 µM	> 100 µM	> 100 µM	> 100 µM	> 100 µM	–	–	–
CCC(=O)OCOc1ccc(/C=C2\CCC(CN(C)C)C2=O)cc1 (stereo not drawn)	5.54 µM	56.4 µM	9.27 µM	11.1 µM	31.5 µM	4.15 µM	16.5 µM	> 61.2 µM	–
C=C1C(=O)O[C@@H]2/C=C(/C)[C@@H](OC(C)=O)C[C@@H](O)/C(C)=C\[C@@H](OC(=O)[C@]3(C)O[C@@H]3C)[C@@H]12	–	–	–	–	–	–	30.1 µM	–	–
CCO/C=C\C12CCCC1NC(c1ccccc1)(c1ccccc1)O2 (stereo not drawn)	> 100 µM	79.5 µM	74.5 µM	64.5 µM	> 100 µM	–	–	–	–
CC1=C(CCC(C)CO)O[C@H]2C[C@H]3[C@@H]4CC[C@H]5C[C@@H](O)CC[C@]5(C)[C@H]4CC(=O)[C@]3(C)[C@@H]12 (stereo partly drawn)	–	–	–	–	–	–	45.4 µM	–	–
OC1OCC(COc2cc(Cl)c(Cl)cc2Cl)OC1O (stereo not drawn)	> 100 µM	88.3 µM	> 100 µM	> 100 µM	79.7 µM	–	–	> 100 µM	–
COc1cc(/C=C2\[C@@H]3NC(Cc4c(OC)c(C)c(OC)c(OC)c43)C(=O)N2Cc2ccccc2)c(OC)c(C)c1OC	> 100 µM	> 100 µM	> 100 µM	77.3 µM	–	–	–	> 100 µM	–
Clc1ccc2c(NC3CCC(N4CCCCC4)CC3)ccnc2c1 (stereo not drawn)	–	–	–	–	–	–	33.2 µM	–	–
CC1C(c2ccccc2)N(C)C(c2ccccc2)C(C)C1(O)c1ccccc1 (stereo not drawn)	> 100 µM	> 100 µM	> 100 µM	> 100 µM	> 100 µM	–	–	–	–
O=[N+]([O-])c1ccc2c(c1)C(N1CCN(CCO)CC1)Cc1ccc(F)cc1S2 (stereo not drawn)	–	–	–	–	–	–	24.1 µM	–	–
C[C@]12CCC(=O)C=C1C[C@@H](O)[C@@H]1[C@@H]2CC[C@@]2(C)[C@H]1CC[C@]2(C)O	–	–	–	–	–	–	> 100 µM	–	–
COc1cc2c(cc1OC)C(Cl)C(c1ccc(Br)cc1)=C2Cl (stereo not drawn)	27.6 µM	23.3 µM	–	36 µM	32.6 µM	–	13.6 µM	–	TGI (P388 leukemia): > 100 µM; TGI (P388/ADR leukemia): > 100 µM; TGI (SN12K1 renal): 29.4 µM
O=C(NC1CCC[C@H]1OC(=O)c1ccccc1)c1ccccc1 (stereo partly drawn)	> 100 µM	–	–	> 100 µM	> 100 µM	> 100 µM	–	> 100 µM	–
CC12CCC(C1)C(C)(C)C2OC(=O)c1ccccc1N (stereo not drawn)	–	–	–	–	–	–	29.7 µM	–	–
CC1(C)OCC2OC(n3cnc4c(N)nc(Cl)nc43)C(OS(C)(=O)=O)C2O1 (stereo not drawn)	–	–	–	–	–	–	> 100 µM	–	–
O=C1C=CC2C3C(=O)N(c4ccccc4)C(=O)C3C1N2Cc1ccccc1 (stereo not drawn)	–	–	–	–	–	–	10.9 µM	–	GI50 (MDA-N): 3.14 µM

SMILES	TGI (DLD-1 colon)	TGI (DMS 114 small cell lung)	TGI (LXFL 529 NSCLC)	TGI (M19-MEL melanoma)	TGI (SNB-78 CNS)	TGI (XF 498 CNS)	TGI (MDA-N)	TGI (RXF-631 renal)	also measured
COC(=O)CC[C@@H](C)[C@H]1CC[C@H]2[C@@H]3CC[C@@H]4C[C@H](O)CC[C@]4(C)[C@H]3CC[C@]12C	–	–	–	–	–	–	35.6 µM	–	–
CC1(c2ccc(F)cc2)C2C(=O)NC(=O)C1C(=O)NC2=O (stereo not drawn)	> 100 µM	> 100 µM	> 100 µM	> 100 µM	> 100 µM	> 100 µM	–	–	–
C=CCC1(CN(C)C)CC/C(=C\c2ccc3c(c2)OCO3)C1=O (stereo not drawn)	81.1 µM	–	> 100 µM	> 100 µM	> 100 µM	–	–	78.4 µM	–
Nc1nc2cc(Cl)ccc2n1N	–	–	–	–	–	–	> 100 µM	–	–
CCC(O)CCCCCCCCCCCCCCC(=O)O (stereo not drawn)	> 100 µM	> 100 µM	> 100 µM	> 100 µM	> 100 µM	> 100 µM	–	> 100 µM	–
Cc1ccc(/C=C2\CCCCC2=O)cc1	> 100 µM	> 100 µM	> 100 µM	> 100 µM	> 100 µM	> 100 µM	–	> 100 µM	–
COc1ccc(N=NC2=C(O)CCC2=O)cc1	> 100 µM	> 100 µM	–	> 100 µM	> 100 µM	–	–	> 100 µM	–
CC(C)N1CC2CC(CN(C(=O)c3ccc(Cl)cc3)C2)C1	–	> 100 µM	> 100 µM	> 100 µM	–	> 100 µM	–	> 100 µM	–
CCCCCCCCCCCCCCNCC(OC)OC	28.6 µM	29.3 µM	30 µM	32.3 µM	34.3 µM	31.7 µM	–	31.2 µM	–
Cc1ccc2ccccc2c1CSc1nc(N)nc2c1ncn2CC(C)C	–	–	–	–	–	–	> 100 µM	–	–
Cc1cc(N(CCC#N)S(=O)(=O)c2ccccc2)ccc1C=Nc1ccc(C(=O)O)cc1	4.11 µM	10.1 µM	3.52 µM	7.32 µM	34.7 µM	22.5 µM	> 100 µM	–	–
O=C(Nc1ccc(Br)c2ccccc12)c1ccc2ccccc2c1O	–	–	–	–	–	–	15.6 µM	–	–
CC(=O)OC1CC2(C)C(=CC1C1SCCS1)CCC1C2CCC2(C)C(OC(C)=O)CCC12 (stereo not drawn)	–	–	–	–	–	–	> 100 µM	–	–
OC(c1cc(C(F)(F)F)nc2c(Cl)cc(Cl)cc12)C1CCCCN1 (stereo not drawn)	–	–	–	–	–	–	> 100 µM	–	–
O=C1c2ccccc2C(=O)N1CC#CCO	–	–	> 100 µM	> 100 µM	> 100 µM	> 100 µM	–	> 100 µM	–
Cc1cc(-c2ccccc2)nc(Nc2cc3ccccc3[nH]2)n1	> 100 µM	> 100 µM	> 100 µM	> 100 µM	> 100 µM	> 100 µM	–	–	–
